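The compound was tested at five concentrations on cells cultured in 96-well plates, with a 48-hour exposure period. Abbreviation: GI50, concentration required for 50% inhibition of growth.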 Active and inactive are the calls of the source. Cut-off read from the data, not from the text of the source: active = GI50 up to about 1.1 µM and inactive = higher.
Legend:
Experiment in all cases: inhibition of tumour cell growth, NCI panel, 48 h
786-0 = system: 786-0
A498 = system: A498
A549 = system: A549
ACHN = system: ACHN
CAKI-1 = system: CAKI-1
CCRF-CEM = system: CCRF-CEM
COLO 205 = system: COLO 205
DLD-1 = system: DLD-1
DMS-114 = system: DMS-114
DMS-273 = system: DMS-273
EKVX = system: EKVX
HCC 2998 = system: HCC 2998
HCT-116 = system: HCT-116
HCT-15 = system: HCT-15
HL-60 = system: HL-60
HOP-18 = system: HOP-18
HOP-62 = system: HOP-62
HOP-92 = system: HOP-92
HT-29 = system: HT-29
IGROV-1 = system: IGROV-1
K562 = system: K562
KM-20L2 = system: KM-20L2
KM12 = system: KM12
LOX IMVI = system: LOX IMVI
LXFL 529 = system: LXFL 529
M14 = system: M14
M19-MEL = system: M19-MEL
Malme-3M = system: Malme-3M
NCI-H23 = system: NCI-H23
NCI-H460 = system: NCI-H460
NCI-H522 = system: NCI-H522
OVCAR-3 = system: OVCAR-3
OVCAR-5 = system: OVCAR-5
OVCAR-8 = system: OVCAR-8
RPMI-8226 = system: RPMI-8226
SF-268 = system: SF-268
SF-295 = system: SF-295
SF-539 = system: SF-539
SK-MEL-28 = system: SK-MEL-28
SK-MEL-2 = system: SK-MEL-2
SK-MEL-5 = system: SK-MEL-5
SK-OV-3 = system: SK-OV-3
SN12C = system: SN12C
SNB-19 = system: SNB-19
SNB-75 = system: SNB-75
SNB-78 = system: SNB-78
SW-620 = system: SW-620
TK-10 = system: TK-10
U-251 = system: U-251
UACC-257 = system: UACC-257
UACC-62 = system: UACC-62
UO-31 = system: UO-31
MOLT-4 = system: MOLT-4
NCI-H226 = system: NCI-H226
OVCAR-4 = system: OVCAR-4
RXF 393 = system: RXF 393
SR = system: SR
XF498 = system: XF498

For `CC(C)(C)C1=CC(=C2C(=O)C(=O)c3ccccc3C2=O)C=C(C(C)(C)C)C1=O`, the GI50 (786-0) was 34.5 µM (inactive), the GI50 (A498) was < 0.01 µM (active) and the GI50 (A549) was > 100 µM (inactive). For the same compound, the GI50 (ACHN) was 83.9 µM (inactive), the GI50 (CAKI-1) was 52.1 µM (inactive) and the GI50 (CCRF-CEM) was 36.5 µM (inactive). For the same compound, the GI50 (COLO 205) was 42.1 µM (inactive), the GI50 (DLD-1) was 36.6 µM (inactive) and the GI50 (DMS-114) was 31.3 µM (inactive). For the same compound, the GI50 (DMS-273) was 59.8 µM (inactive), the GI50 (EKVX) was 35.5 µM (inactive) and the GI50 (HCC 2998) was > 100 µM (inactive). The GI50 (HCT-116) was 19.2 µM (inactive), the GI50 (HCT-15) was 35.5 µM and the GI50 (HL-60) was 29.4 µM (inactive). For the same compound, the GI50 (HOP-18) was 36.2 µM (inactive), the GI50 (HOP-62) was > 100 µM (inactive) and the GI50 (HOP-92) was 28.8 µM (inactive). For the same compound, the GI50 (HT-29) was > 100 µM (inactive), the GI50 (IGROV-1) was 24.1 µM (inactive) and the GI50 (K562) was 32.1 µM (inactive). For the same compound, the GI50 (KM-20L2) was > 100 µM (inactive), the GI50 (KM12) was > 100 µM (inactive) and the GI50 (LOX IMVI) was 37.1 µM (inactive). The GI50 (LXFL 529) was 26.9 µM (inactive), the GI50 (M14) was 37.5 µM (inactive) and the GI50 (M19-MEL) was 75.3 µM (inactive). For the same compound, the GI50 (Malme-3M) was 26.5 µM (inactive), the GI50 (NCI-H23) was 32.7 µM (inactive) and the GI50 (NCI-H460) was 85.5 µM (inactive). For the same compound, the GI50 (NCI-H522) was 18.7 µM (inactive), the GI50 (OVCAR-3) was 33 µM (inactive) and the GI50 (OVCAR-5) was > 100 µM (inactive). The GI50 (OVCAR-8) was 51.3 µM (inactive), the GI50 (RPMI-8226) was 23.8 µM (inactive) and the GI50 (SF-268) was > 100 µM (inactive). The GI50 (SF-295) was > 100 µM (inactive), the GI50 (SF-539) was 82.2 µM (inactive) and the GI50 (SK-MEL-28) was > 100 µM (inactive). For the same compound, the GI50 (SK-MEL-2) was > 100 µM (inactive), the GI50 (SK-MEL-5) was 48.5 µM (inactive) and the GI50 (SK-OV-3) was > 100 µM (inactive). For the same compound, the GI50 (SN12C) was 72.9 µM (inactive), the GI50 (SNB-19) was > 100 µM (inactive) and the GI50 (SNB-75) was > 100 µM (inactive). For the same compound, the GI50 (SNB-78) was > 100 µM (inactive), the GI50 (SW-620) was 36 µM (inactive) and the GI50 (TK-10) was 84.9 µM (inactive). For the same compound, the GI50 (U-251) was > 100 µM (inactive), the GI50 (UACC-257) was 29.4 µM (inactive) and the GI50 (UACC-62) was 32.7 µM (inactive). For the same compound, the GI50 (UO-31) was 43.7 µM (inactive).

With `Cc1ccc(NC(=O)C(=O)C(C2C(C)CC(=O)C2CC(=O)O)[N+](=O)[O-])cc1` (stereo unspecified) the GI50 (786-0) was > 100 µM (inactive), the GI50 (A498) was > 100 µM (inactive) and the GI50 (A549) was > 100 µM (inactive). For the same compound, the GI50 (ACHN) was > 100 µM (inactive), the GI50 (CAKI-1) was > 100 µM (inactive) and the GI50 (CCRF-CEM) was > 100 µM (inactive). For the same compound, the GI50 (COLO 205) was > 100 µM (inactive), the GI50 (DLD-1) was > 100 µM (inactive) and the GI50 (DMS-114) was > 100 µM (inactive). The GI50 (EKVX) was > 100 µM (inactive), the GI50 (HCC 2998) was > 100 µM (inactive) and the GI50 (HCT-116) was > 100 µM (inactive). For the same compound, the GI50 (HCT-15) was greater than 100 µM, the GI50 (HL-60) was > 100 µM (inactive) and the GI50 (HOP-62) was > 100 µM (inactive). The GI50 (HOP-92) was > 100 µM (inactive), the GI50 (HT-29) was > 100 µM (inactive) and the GI50 (IGROV-1) was > 100 µM (inactive). For the same compound, the GI50 (K562) was > 100 µM (inactive), the GI50 (KM-20L2) was > 100 µM (inactive) and the GI50 (KM12) was > 100 µM (inactive). For the same compound, the GI50 (LOX IMVI) was > 100 µM (inactive), the GI50 (LXFL 529) was > 100 µM (inactive) and the GI50 (M14) was > 100 µM (inactive). The GI50 (MOLT-4) was > 100 µM (inactive), the GI50 (Malme-3M) was > 100 µM (inactive) and the GI50 (NCI-H226) was > 100 µM (inactive). For the same compound, the GI50 (NCI-H23) was > 100 µM (inactive), the GI50 (NCI-H460) was > 100 µM (inactive) and the GI50 (OVCAR-3) was > 100 µM (inactive). The GI50 (OVCAR-4) was > 100 µM (inactive), the GI50 (OVCAR-5) was > 100 µM (inactive) and the GI50 (OVCAR-8) was > 100 µM (inactive). For the same compound, the GI50 (RPMI-8226) was > 100 µM (inactive), the GI50 (RXF 393) was > 100 µM (inactive) and the GI50 (SF-268) was > 100 µM (inactive). For the same compound, the GI50 (SF-295) was > 100 µM (inactive), the GI50 (SF-539) was > 100 µM (inactive) and the GI50 (SK-MEL-28) was > 100 µM (inactive). The GI50 (SK-MEL-2) was > 100 µM (inactive), the GI50 (SK-MEL-5) was > 100 µM (inactive) and the GI50 (SK-OV-3) was > 100 µM (inactive). For the same compound, the GI50 (SN12C) was > 100 µM (inactive), the GI50 (SNB-19) was > 100 µM (inactive) and the GI50 (SNB-75) was > 100 µM (inactive). The GI50 (SNB-78) was > 100 µM (inactive), the GI50 (SR) was > 100 µM (inactive) and the GI50 (SW-620) was > 100 µM (inactive). For the same compound, the GI50 (TK-10) was > 100 µM (inactive), the GI50 (U-251) was > 100 µM (inactive) and the GI50 (UACC-257) was > 100 µM (inactive). For the same compound, the GI50 (UACC-62) was > 100 µM (inactive), the GI50 (UO-31) was > 100 µM (inactive) and the GI50 (XF498) was > 100 µM (inactive).

In the case of `O/N=C(\c1ccccc1)N1CCCCC1`, the GI50 (786-0) is reported as > 100 µM (inactive), the GI50 (A549) is reported as > 100 µM (inactive) and the GI50 (CAKI-1) is reported as > 100 µM (inactive). The GI50 (COLO 205) was > 100 µM (inactive), the GI50 (DLD-1) was > 100 µM (inactive) and the GI50 (DMS-114) was > 100 µM (inactive). The GI50 (DMS-273) was > 100 µM (inactive), the GI50 (HCC 2998) was > 100 µM (inactive) and the GI50 (HCT-116) was > 100 µM (inactive). The GI50 (HL-60) was > 100 µM (inactive), the GI50 (HOP-18) was < 0.01 µM (active) and the GI50 (HOP-62) was 92.3 µM (inactive). The GI50 (HOP-92) was > 100 µM (inactive), the GI50 (HT-29) was > 100 µM (inactive) and the GI50 (KM-20L2) was > 100 µM (inactive). The GI50 (KM12) was > 100 µM (inactive), the GI50 (LOX IMVI) was > 100 µM (inactive) and the GI50 (LXFL 529) was > 100 µM (inactive). The GI50 (M14) was > 100 µM (inactive), the GI50 (Malme-3M) was 4.19 µM (inactive) and the GI50 (NCI-H23) was > 100 µM (inactive). The GI50 (NCI-H460) was > 100 µM (inactive), the GI50 (NCI-H522) was > 100 µM (inactive) and the GI50 (OVCAR-3) was > 100 µM (inactive). For the same compound, the GI50 (OVCAR-4) was > 100 µM (inactive), the GI50 (OVCAR-5) was > 100 µM (inactive) and the GI50 (OVCAR-8) was > 100 µM (inactive). For the same compound, the GI50 (SF-268) was > 100 µM (inactive), the GI50 (SF-295) was > 100 µM (inactive) and the GI50 (SF-539) was > 100 µM (inactive). The GI50 (SK-MEL-2) was > 100 µM (inactive), the GI50 (SN12C) was > 100 µM (inactive) and the GI50 (SNB-19) was > 100 µM (inactive). For the same compound, the GI50 (SNB-75) was 82.8 µM (inactive), the GI50 (SNB-78) was > 100 µM (inactive) and the GI50 (SR) was > 100 µM (inactive). The GI50 (SW-620) was > 100 µM (inactive), the GI50 (U-251) was > 100 µM (inactive) and the GI50 (UACC-257) was > 100 µM (inactive). The GI50 (UO-31) was 66.5 µM (inactive).

Reference: ChEMBL document CHEMBL1201862, “PubChem BioAssay data set” (2004)
